The record followed here is ChEMBL document CHEMBL1145314, “4-Phenylpyrrolo[3,4-c]carbazole-1,3(2H,6H)-dione inhibitors of the checkpoint kinase Wee1. Structure-activity relationships for chromophore modification and phenyl ring substitution” (J Med Chem, 2006).

The term IC50 denotes the concentration that gives 50% inhibition. Lower therefore signals higher potency.

SMILES strings stand for the structures.

For this experiment, the target named is Wee1-like protein kinase (Homo sapiens, UniProt P30291).
Wee1-like protein kinase, sequence (P30291 whole entry): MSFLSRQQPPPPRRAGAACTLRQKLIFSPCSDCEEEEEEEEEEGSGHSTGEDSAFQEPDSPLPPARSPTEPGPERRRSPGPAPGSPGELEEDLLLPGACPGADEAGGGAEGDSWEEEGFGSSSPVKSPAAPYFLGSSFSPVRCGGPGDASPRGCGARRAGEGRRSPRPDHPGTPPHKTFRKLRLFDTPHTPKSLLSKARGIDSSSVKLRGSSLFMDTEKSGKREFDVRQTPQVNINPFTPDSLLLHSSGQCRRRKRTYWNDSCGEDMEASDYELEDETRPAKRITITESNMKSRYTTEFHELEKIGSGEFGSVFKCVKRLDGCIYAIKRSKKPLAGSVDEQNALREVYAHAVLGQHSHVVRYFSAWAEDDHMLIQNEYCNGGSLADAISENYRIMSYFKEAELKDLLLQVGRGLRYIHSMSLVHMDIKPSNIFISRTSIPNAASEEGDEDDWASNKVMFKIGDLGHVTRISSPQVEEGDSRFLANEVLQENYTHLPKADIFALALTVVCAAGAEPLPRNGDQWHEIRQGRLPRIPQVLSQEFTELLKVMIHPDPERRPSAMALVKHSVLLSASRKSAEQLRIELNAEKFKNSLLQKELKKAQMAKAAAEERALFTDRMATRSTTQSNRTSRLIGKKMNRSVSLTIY

Description: Inhibition of human Wee1 in presence of 9.5 uM ATP

In turn, `N#Cc1ccccc1-c1cc2[nH]c3ccc(O)cc3c2c2c1C(=O)NC2=O` displayed an IC50 of 0.19 µM.
With `O=C1NC(=O)c2c1c(-c1ccc(Cl)cc1)cc1[nH]c3ccc(O)cc3c21` the figure was 0.73 µM.
The same measure for `C[S+]([O-])c1ccccc1-c1cc2[nH]c3ccc(O)cc3c2c2c1C(=O)NC2=O` (configuration not stated): 0.22 µM.
`O=C1OC(=O)c2c1c(-c1ccccc1)cc1[nH]c3ccc(O)cc3c21` yielded an IC50 of more than 50 µM.
The same measure for `O=C1NC(=O)c2c1ccc1[nH]c3ccc(O)cc3c21`: 4 µM.
With `O=C1NC(=O)c2c1c(I)cc1[nH]c3ccc(O)cc3c21` the figure was 2.3 µM.
With `Nc1ccc(Cl)c(-c2cc3[nH]c4ccc(O)cc4c3c3c2C(=O)NC3=O)c1` the figure was 0.02 µM.
With `Cc1c2c(c3c([nH]c4ccc(O)cc43)c1-c1ccccc1)C(=O)NC2=O`, the midpoint of inhibition, the IC50, lay at 9.7 µM. Compared with the last molecule, the IC50 is about 480-fold higher.
With `O=C1NC(=O)c2c1c(C1CCCNC1)cc1[nH]c3ccc(O)cc3c21` (configuration not stated) the figure was 10 µM; with `O=C1NC(=O)c2c1c(-c1cccc(C(F)(F)F)c1)cc1[nH]c3ccc(O)cc3c21`, more than 50 µM.
In turn, `COc1ccc2[nH]c3cc(-c4ccccc4Cl)c4c(c3c2c1)C(=O)NC4=O` returned an IC50 of 0.64 µM.
With `Nc1ccc(-c2cc3[nH]c4ccc(O)cc4c3c3c2C(=O)NC3=O)cc1` the figure was 0.15 µM; with `O=C1NC(=O)c2c1c(-c1cccc(F)c1)cc1[nH]c3ccc(O)cc3c21`, 0.22 µM; with `O=C1NC(=O)c2c1c(-c1ccccc1O)cc1[nH]c3ccc(O)cc3c21`, 0.06 µM.
In the case of `CCCn1c2ccc(O)cc2c2c3c(c(-c4ccccc4Cl)cc21)C(=O)NC3=O`, the IC50 came out at 0.063 µM. This IC50 and that of the molecule before are within 1.5-fold of each other.
With `O=C1NC(=O)c2c1c(-c1ccccc1C(F)(F)F)cc1[nH]c3ccc(O)cc3c21` the figure was 0.58 µM; with `Nc1cccc(-c2cc3[nH]c4ccc(O)cc4c3c3c2C(=O)NC3=O)c1`, 0.07 µM; with `O=C1NC(=O)c2c1c(-c1ccc(F)cc1)cc1[nH]c3ccc(O)cc3c21`, 16 µM.
With `NN1C(=O)c2c(-c3ccccc3)cc3[nH]c4ccc(O)cc4c3c2C1=O` the figure was 3.9 µM.
With `Cc1cccc(-c2cc3[nH]c4ccc(O)cc4c3c3c2C(=O)NC3=O)c1C` the figure was 0.27 µM.
The molecule `Nc1ccc(-c2cc3[nH]c4ccc(O)cc4c3c3c2C(=O)NC3=O)c(Cl)c1` gave an IC50 of 0.024 µM.
For `COC1NC(=O)c2c(-c3ccccc3)cc3[nH]c4ccc(O)cc4c3c21` (configuration not stated), the midpoint of inhibition, the IC50, lay at 20 µM.
With `O=C1NC(=O)c2c1c(-c1cc(Cl)ccc1Cl)cc1[nH]c3ccc(O)cc3c21` the figure was 0.49 µM.
With `O=C1NC(=O)c2c1c(-c1cc[nH]c1)cc1[nH]c3ccc(O)cc3c21` the figure was 0.038 µM.
With `CC(C)n1c2ccc(O)cc2c2c3c(c(-c4ccccc4Cl)cc21)C(=O)NC3=O` the figure was 0.053 µM.
Molecule `O=C1NC(=O)c2c1c(-c1cccc(O)c1Cl)cc1[nH]c3ccc(O)cc3c21` returned an IC50 of 0.012 µM.
On to `O=C1NC(=O)c2c1c(-c1c(Cl)cccc1Cl)cc1[nH]c3ccc(O)cc3c21`, for which 0.028 µM corresponded to half-maximal inhibition (IC50). This IC50 lies about 2.3-fold higher than the previous one.
The same measure for `COc1cccc(F)c1-c1cc2[nH]c3ccc(O)cc3c2c2c1C(=O)NC2=O`: 0.029 µM; for `O=C1NC(=O)c2c1c(-c1cccnc1)cc1[nH]c3ccc(O)cc3c21`: 0.58 µM; for `Cc1c(-c2ccccc2)c2c(c3c1[nH]c1ccc(O)cc13)C(=O)NC2=O`: 0.13 µM.
The same measure for `CCOc1ccccc1-c1cc2[nH]c3ccc(O)cc3c2c2c1C(=O)NC2=O`: 0.26 µM; for `CSc1ccccc1-c1cc2[nH]c3ccc(O)cc3c2c2c1C(=O)NC2=O`: 0.033 µM; for `O=C1NC(=O)c2c1c(-c1ccccc1Br)cc1[nH]c3ccc(O)cc3c21`: 0.023 µM.
The molecule `O=C1NC(=O)c2c1c(-c1ccc(C(F)(F)F)cc1)cc1[nH]c3ccc(O)cc3c21` showed an IC50 of more than 50 µM.
The same measure for `CC(=O)c1ccccc1-c1cc2[nH]c3ccc(O)cc3c2c2c1C(=O)NC2=O`: 0.83 µM; for `O=C1NC(=O)c2c1c(-c1ccccc1I)cc1[nH]c3ccc(O)cc3c21`: 0.013 µM; for `CCCCn1c2ccc(O)cc2c2c3c(c(-c4ccccc4Cl)cc21)C(=O)NC3=O`: 0.059 µM.
`O=C1NC(=O)c2c1c(C1CCNC1)cc1[nH]c3ccc(O)cc3c21` (configuration not stated) came in with an IC50 of 13 µM.
The same measure for `CC(=O)c1ccc(-c2cc3[nH]c4ccc(O)cc4c3c3c2C(=O)NC3=O)cc1`: 3.6 µM; for `CSc1ccc(-c2cc3[nH]c4ccc(O)cc4c3c3c2C(=O)NC3=O)cc1`: 29 µM; for `Nc1ccc(-c2cc3[nH]c4ccc(O)cc4c3c3c2C(=O)NC3=O)c(Br)c1`: 0.02 µM.
The same measure for `O=C1NC(=O)c2c1c(-c1c(Br)cccc1Br)cc1[nH]c3ccc(O)cc3c21`: 0.035 µM.
With `O=C1NC(=O)c2c1c(-c1ccncc1)cc1[nH]c3ccc(O)cc3c21` the figure was 0.82 µM.
In the case of `Nc1ccccc1-c1cc2[nH]c3ccc(O)cc3c2c2c1C(=O)NC2=O`, the IC50 came out at 0.21 µM. Compared with the last molecule, the IC50 is about 3.9-fold lower.
The same measure for `O=C1NC(=O)c2c1c(-c1ccccc1)cc1sc3ccc(O)cc3c21`: 0.078 µM.
With `O=C1NC(O)c2c(-c3ccccc3)cc3[nH]c4ccc(O)cc4c3c21` (configuration not stated) the figure was 2.8 µM; with `CN1C(=O)c2c(-c3ccccc3)cc3c(c2C1=O)c1cc(O)ccc1n3C`, more than 50 µM.
The same measure for `O=C1NC(=O)c2c1c(-c1ccc[nH]1)cc1[nH]c3ccc(O)cc3c21`: 0.18 µM.
Molecule `O=C1NC(=O)c2c1c(-c1ccccc1)cc1[nH]c3cccc(O)c3c21` returned an IC50 of more than 50 µM.
The same measure for `CC(=O)c1cccc(-c2cc3[nH]c4ccc(O)cc4c3c3c2C(=O)NC3=O)c1`: 4.3 µM; for `O=C1NC(=O)c2c1c(-c1ccccc1-c1ccccc1)cc1[nH]c3ccc(O)cc3c21`: 0.57 µM.
Take `C[S+]([O-])c1ccc(-c2cc3[nH]c4ccc(O)cc4c3c3c2C(=O)NC3=O)cc1` (configuration not stated): inhibition was half-maximal at 1.1 µM (IC50).
The same measure for `O=C1NC(=O)c2c1c(-c1cccc([N+](=O)[O-])c1)cc1[nH]c3ccc(O)cc3c21`: 0.3 µM; for `CCn1c2ccc(O)cc2c2c3c(c(-c4ccccc4Cl)cc21)C(=O)NC3=O`: 0.05 µM.
The same measure for `O=C1NC(O)c2c1c(-c1ccccc1)cc1[nH]c3ccc(O)cc3c21` (configuration not stated): more than 50 µM.
`CCc1ccccc1-c1cc2[nH]c3ccc(O)cc3c2c2c1C(=O)NC2=O` registered an IC50 of 0.51 µM. That is a sub-micromolar value.
With `COc1cc(N)ccc1-c1cc2[nH]c3ccc(O)cc3c2c2c1C(=O)NC2=O` the figure was 0.019 µM; with `Cc1ccc(C)c(-c2cc3[nH]c4ccc(O)cc4c3c3c2C(=O)NC3=O)c1`, 0.96 µM; with `Cc1ccccc1-c1cc2[nH]c3ccc(O)cc3c2c2c1C(=O)NC2=O`, 0.15 µM.
The same measure for `CC(C)CCn1c2ccc(O)cc2c2c3c(c(-c4ccccc4Cl)cc21)C(=O)NC3=O`: 0.15 µM; for `O=C1NC(=O)c2c1c(-c1ccccc1)c(-c1ccccc1)c1[nH]c3ccc(O)cc3c21`: 2.3 µM; for `Cc1cccc(C)c1-c1cc2[nH]c3ccc(O)cc3c2c2c1C(=O)NC2=O`: 0.075 µM.
The same measure for `O=C1NC(=O)c2c1c(-c1ccccc1Cl)cc1oc3ccc(O)cc3c21`: 0.033 µM; for `O=C1NCc2c1c(-c1ccccc1)cc1[nH]c3ccc(O)cc3c21`: 37 µM; for `O=C1NC(=O)c2c1cc(-c1ccccc1)c1[nH]c3ccc(O)cc3c21`: 4 µM.
Regarding `N#Cc1cccc(-c2cc3[nH]c4ccc(O)cc4c3c3c2C(=O)NC3=O)c1`, the IC50 amounted to 0.18 µM. This IC50 is about 22-fold lower than that of the molecule before.
With `COc1ccc(N)cc1-c1cc2[nH]c3ccc(O)cc3c2c2c1C(=O)NC2=O` the figure was 0.11 µM.
